{"source": "patent US5684024A", "about": "“Pyrazole dimers compositions and methods for treating influenza” (priority 1996, dated 1997)", "key": {"[1]": {"test_system": "influenza A/Victoria", "test": "Plaque reduction in MDCK cells, influenza A/Victoria", "conditions": "48 h, read-out: IC50, […], A/Victoria", "protocol": "(§1) Compounds were evaluated for antiviral activity against influenza A/WSN by plaque reduction in Madin Darby canine kidney (MDCK) cells. Duplicate monolayers of MDCK cells in 6 well plates were washed free of protein-containing media, infected with 50-100 plaque-forming units of virus (0.4 ml volume), and incubated at 37° C. for 60 min. After aspiration of the virus inoculum, a 0.6% agarose overlay (3 ml) containing Eagle minimal essential media, trypsin (8 μg/ml), and the appropriate drug dilution (final concentration of 1% DMSO) was added to the cell monolayer. Plates were incubated at 37° C. in a humidified atmosphere of 5% CO2 in air. After 48 h, monolayers were fixed with glutaraldehyde, stained with 0.1% crystal violet and the plaques were counted. The percentage of plaque inhibition relative to the infected control (no drug) plates were calculated for each drug concentration and the 50% inhibitory concentration (IC50) was determined."}, "[2]": {"molecular_target": "influenza A/WSN virus transcriptase (Influenza A virus, UniProt P03427+P03430+P15659)", "test": "biochemical", "conditions": "read-out: IC50, concentration required to achieve 50% inhibition of influenza A/WSN virus transcriptase activity"}, "[3]": {"test_system": "influenza A/WSN", "test": "Plaque reduction in MDCK cells, influenza A/WSN", "conditions": "48 h, read-out: IC50, […], A/WSN", "protocol": "as §1"}}, "data": [{"smiles": "CC(=O)C1=NN(c2ccc(C(=O)O)cc2C)C(=O)C1=C1C(=O)N(c2ccc(C(=O)O)cc2C)N=C1C(C)=O", "note": "[Example 4, 3,3'-Bis[3-Methyl-4-(2-hydroxy-4-acetylpyrazolyl)-benzoic Acid]]", "values": [{"measurement": "IC50", "setting": "[1]", "value": 25, "unit": "µM"}, {"measurement": "IC50", "setting": "[2]", "value": 0.2, "unit": "µM"}, {"measurement": "IC50", "setting": "[3]", "value": 50, "unit": "µM"}]}, {"smiles": "COc1cc(C(=O)O)ccc1N1N=C(C(C)=O)C(=C2C(=O)N(c3ccc(C(=O)O)cc3OC)N=C2C(C)=O)C1=O", "note": "[Example 5]", "values": [{"measurement": "IC50", "setting": "[2]", "value": 1.2, "unit": "µM"}]}, {"smiles": "CC(=O)C1=NN(c2ccc(C(=O)O)c(Cl)c2)C(=O)C1=C1C(=O)N(c2ccc(C(=O)O)c(Cl)c2)N=C1C(C)=O", "note": "[Example 6]", "values": [{"measurement": "IC50", "setting": "[2]", "value": 0.8, "unit": "µM"}]}, {"smiles": "CC(=O)C1=NN(c2ccc(C(=O)O)cc2)C(=O)C1=C1C(=O)N(c2ccc(C(=O)O)cc2)N=C1C(C)=O", "note": "[Example 7]", "values": [{"measurement": "IC50", "setting": "[1]", "value": 30, "unit": "µM"}, {"measurement": "IC50", "setting": "[2]", "value": 0.5, "unit": "µM"}, {"measurement": "IC50", "setting": "[3]", "value": 50, "unit": "µM"}]}, {"smiles": "CC(=O)C1=NN(c2cccc(C(=O)O)c2)C(=O)C1=C1C(=O)N(c2cccc(C(=O)O)c2)N=C1C(C)=O", "note": "[Example 8]", "values": [{"measurement": "IC50", "setting": "[2]", "value": 0.35, "unit": "µM"}]}, {"smiles": "CC(=O)C1=NN(c2ccc(Cl)c(C(=O)O)c2)C(=O)C1=C1C(=O)N(c2ccc(Cl)c(C(=O)O)c2)N=C1C(C)=O", "note": "[Example 9]", "values": [{"measurement": "IC50", "setting": "[2]", "value": 0.25, "unit": "µM"}]}, {"smiles": "CC(=O)C1=NN(c2cc(C(=O)O)ccc2C)C(=O)C1=C1C(=O)N(c2cc(C(=O)O)ccc2C)N=C1C(C)=O", "note": "[Example 10]", "values": [{"measurement": "IC50", "setting": "[2]", "value": 0.35, "unit": "µM"}]}]}
